Earlier results in patent US20100120727A1, “Eflornithine Prodrugs, Conjugates and Salts, and Methods of Use Thereof” (Kyphia Pharmaceuticals, Inc., priority 2008, published 2010).
Like-named read-outs stand apart in the source and are kept apart here.

Key:
tumor putrescine levels = conditions: DFMO infusion
MCA sarcoma = conditions: in vivo
[1] = not given; remark: listed apart in the source
[2] = not given; remark: listed apart in the source

NCCCC(N)(C(=O)O)C(F)F (racemic) [DFMO, 2-(Difluoromethyl)-DL-ornithine]
decrease in tumor putrescine levels (tumor putrescine levels): 90% | tumor growth rate and regression (MCA sarcoma): reduces the growth rate of an MCA sarcoma but does not produce tumor regression

CC(=O)Oc1ccccc1C(=O)O [Aspirin, acetylsalicylic acid]
solubility in water: very low solubility in water

CC1=C(CC(=O)O)c2cc(F)ccc2/C1=C\c1ccc(S(C)(=O)=O)cc1 [Sulindac sulfone]
COX-inhibitory activity (COX): lacks COX-inhibitory activity

CC1=C(CC(=O)O)c2cc(F)ccc2/C1=C\c1ccc([S+](C)[O-])cc1 (stereo not shown) [Sulindac, (Z)-5-Fluoro-2-methyl-1-((4 (methylsulfinyl)phenyl)methylene)1H-indene-3-acetic acid]
time to peak plasma levels ([1]; administered with food): 3 to 4 h | fraction of the drug absorbed ([1]; after oral administration): about 90% | time to peak plasma levels ([1]; fasting patients): about 2 hours | mild gastrointestinal effects, share of patients ([2]; abdominal pain and nausea most frequent): ~20% | skin rash and pruritus, share of patients ([2]; human, in vivo): 5%

CSc1ccc(/C=C2/C(C)=C(CC(=O)O)c3cc(F)ccc32)cc1 [sulfide metabolite]
mean half-life ([1]; in vivo): 16.4 h
